According to US9963457B2, “Crystal of 5-((2-(6-amino)-9H-purin-9-yl)ethyl)amino)pentan-1-o1” (FOREVER CHEER INTERNATIONAL LIMITED, priority 2016, dated 2018):

Columns and labels:
[1] = system: mice treated with yeast polysaccharide; test: Bright/dark box test, visceral pain; format: in vivo; conditions: 3 mg/kg IP
Description: (§1) The visceral pain is induced by injecting yeast polysaccharide into the mice colony, and the yeast polysaccharide is derived from Saccharomyces cerevisiae (Sigma), wherein one kind of dextran is resident on the cell wall of the yeast and is identified as a protein-carbohydrate complex. Specifically, the mice were anesthetized after inhaling 1-3% isoflurane, and then a […] suspension of yeast polysaccharide (formulated as a 30 mg/ml solution in physiological saline) was injected into the colon of the mice by using a 24 mm long plastic feed needle within 2 minutes. The control group was injected with 0.1 ml physiological saline. The yeast polysaccharide or physiological saline was injected daily for 3 days. A visceral pain behavior test was carried out according to the Laird procedure. The number of times the mice licking the abdomen within 10 minutes was recorded, excluding other grooming behaviors, stretching of whole body, pressing the abdomen against the floor, and an 1-2-second arched posture. On day 1, 7 and 14 after the injection into the colon, an open field test was carried out from 9 am to 12 pm, and the entire test was a double-blind test. Prior to the behavioral test, the mice were acclimated for 30 minutes in an observation room. The mice were placed at the middle of a new open zone (43.2×43.2×30.5 cm^3) with micro light (<50 lux) and a fan. The movement distance, vertical count, movement count, stereotypic behavior count, and jumping count of animals were recorded within 30 minutes by means of an activity monitoring system equipped with multiple pairs of packaged light beam sets.
Bright/dark box test: The test procedure was carried out by using an improved method in accordance with the prior art. The device was composed of a rectangular organic glass box (44×8.5×25 cm^3), which is separated into bright and dark compartments with the equal size by using a door. A 60 watt lamp (400 lux) in turn-on state was placed at 30 cm above the box to irradiate the bright compartment. Each animal was first placed in the dark compartment for 20 seconds, and then the door leading to the bright compartment was open. The time each animal stayed in the dark compartment and the time each animal enters the bright compartment within 10 minutes were recorded.
In order to confirm the effect of the crystal of the present invention on inhibiting anxiety, mice were subjected to a bright/dark box test, and the results were as shown in Table 8. The physiological saline, non-crystalline NB001 (3 mg/kg), the crystal of the present invention (3 mg/kg), and Gabapentin (30 mg/kg) as a positive control were intraperitoneally injected (IP) into the mice treated with yeast polysaccharide respectively. The behaviors of Mice were observed 28 days after the yeast polysaccharide treatment.

[2] = system: bone cancer pain model in rat (Walker 256 cells); test: Paw withdrawal thermal latency (PWL) in bone cancer pain model; format: in vivo, SD rats; conditions: 20 mg/kg, i.g.
Description: 1. Animals 50 SD rats (180-220 g), placed under a quiet and warm (22° C.) environment without strong light irradiation, having free access to feed and water.
2. Cell Culture: SD Rat homologous cancer cell strains Walker 256 preserved by the Laboratory Animal Center, Forth Military Medical
University, or a commercially available product can be used. RPMI 1640 culture medium (Gibco Inc. of US, containing 100 U/ml each of 10% fetal bovine serum, penicillin, and streptomycin) was used, and the tumor cells were incubated as suspension cells in a 37° C. incubator under 5% CO2, with the medium replaced every other day, and 2 days for 1 passage. The cells were harvested at the 3rd passage, with a cell concentration of 2×10^5/10 μl.
3. Establishment of bone cancer pain model in rat: the rats were operated at the left knee with a small incision after anesthesia (40 mg/kg of pentobarbital sodium) according to sterile surgical operation procedures, the muscle was stripped off gently and the patellar ligament is cut open to expose the distal femur, with 1 mm syringe needle inserted from the intercondylar fossa vertically into the marrow cavity, with an inserting distance no more than 5 mm to prevent punching. Then a 20 μl micro-injector was inserted into the marrow cavity to slowly inject 10 μl of a suspension containing the Walker 256 cells (2×10^5 cancer cells per 10 μl). The injector was stayed there for a few minutes after the injection, and then the needle pinhole was immediately sealed with sterile bone wax. The tumor cells leaking out of the marrow cavity were killed with 75% ethyl alcohol, and then the rat was sutured under sterile conditions layer by layer. The same operation was performed in the sham operation group, except that only the same volume of sterile saline was injected into the marrow cavity slowly.
6. Drug intervention: On day 18 after the surgical operation, the SD rats of the operation group were randomized into 6 groups, i.e., respectively the model group; non-crystalline NB001 group (20 mg/kg, i.g.); the group of the crystal of the present invention (20 mg/kg, i.g.); morphine (2 mg/kg, i.p.); and gabapentin (100 mg/kg, i.g.). The new crystal form and non-crystalline form of the AC1 inhibitor NB001 were both formulated with sterile saline, and morphine and gabapentin were used as positive control drugs. All drugs were administered twice daily for 3 days, and the pain threshold was measured within 2 hours after the last administration on day 3
7. Assessment of rat pain behavior:
Paw withdrawal thermal latency (PWL): the PWL was measured by using a PL-200 thermal pain stimulator (8V, 50 W, with a strength of 100%). The time period since the time irradiating the middle portion of the planta pedis at the operation side of the rat with light till the time the rat lifted its leg to keep out of the light was TWL. To prevent tissue injury, a cut-off time of 80 s was set, each rat was measured for 3 times with an interval of 5 min, and the results were averaged.

[3] = system: mice treated with yeast polysaccharide; test: Elevated plus maze test (EPM), visceral pain; format: in vivo; conditions: 3 mg/kg IP
Description: as §1
An anxious animal model of the prior art—the elevated plus maze test (EPM) was adopted. The mice were acclimated for 30 minutes in the room prior to the behavior observation. The EPM was composed of two open arms (250 lux) and two closed arms (350 lux) arranged opposite to each other. For each test, an individual animal was placed at the center of the test position and allowed to move freely. The test is carried out for 5 minutes. The number of entering the test position for each arm and the time spent therefore were recorded.
The EPM test tested the anxiety behavior of mice after the test treatment. The physiological saline, non-crystalline NB001 (3 mg/kg), the crystal of the present invention (3 mg/kg), and Gabapentin (30 mg/kg) as a positive control were intraperitoneally injected (IP) into the mice treated with yeast polysaccharide respectively. The behaviors of Mice were observed 28 days after the yeast polysaccharide treatment.

[4] = system: mice treated with yeast polysaccharide; test: Visceral pain behavior test in chronic visceral pain model; format: in vivo; conditions: 3 mg/kg IP
Description: Chronic Visceral Pain Model
as §1
The physiological saline, non-crystalline NB001 (3 mg/kg), the crystal of the present invention (3 mg/kg), and Gabapentin (30 mg/kg) as a positive control were intraperitoneally injected (IP) into the mice treated with yeast polysaccharide respectively. The behaviors of Mice were observed 28 days after the yeast polysaccharide treatment.

[5] = system: mice after neuropathic pain; test: Bright/dark box test, neuropathic pain; format: in vivo; conditions: 3 mg/kg IP, 3 mg/kg

For `Nc1ncnc2c1ncn2CCNCCCCCO` [New NB001, 5-(((2-(6-amino)-9H-purin-9-yl)ethyl)amino)pentan-1-ol], the “therapeutic effect in bright/dark box test as compared with the positive control group” value ([1]; Table 8, listed as the crystal of the present invention) was “extremely significant”, the “% time in the open arm” value ([1]; Bright/dark box test, Visceral pain, 3 mg/kg) was 10.3 ± 1.2 (8) % and the “analgesic effect (PWL) as compared with the model group” value ([2]; twice daily for 3 days, PWL at 2 h after last administration (21d)) was “better analgesic effect”. The “significance of the analgesic effect (PWL), FIG. 7” value ([2]; P<0.01) was “extremely significant”, the “therapeutic effect in EPM test as compared with the positive control group” value ([3]; Table 7, listed as the crystal of the present invention) was “extremely significant” and the “% time in the open arm” value ([3]; Visceral pain, 3 mg/kg) was 10.3 ± 1.2 (8) %. The “Number of visceral pain scores” value ([4]; 28 days after yeast polysaccharide treatment) was 11.0 ± 0.7, the “therapeutic effect on chronic pain as compared with the positive control group” value ([4]; Table 6, listed as the crystal of the present invention) was “extremely significant” and the “% time in the open arm” value [5] was 18.5 ± 1.4 (8) %.
